Columns and labels:
[1] = test system: LAMP1/2, TFEB and cathepsin D; assay: Expression of LAMP1/2, TFEB and cathepsin D in hypoxia-exposed primary trophoblast cells; assay type: cell-based, human
Protocol: FIG. 15. To investigate the underlying mechanisms, it was evaluated whether Trehalose can enhance the activities of autophagy-lysosomal degradation pathway, the machinery responsible for clearance of protein aggregates. To this end, the signaling molecules of this machinery such as LAMP1/2, TFEB and cathepsin D were examined in primary trophoblast cells in response to hypoxia stimulation with and without Trehalose treatment.

[2] = test system: pregnant IL10-/- mice; assay: Mouse model of PE: severe PE serum in pregnant IL10-/- mice; assay type: in vivo; details: for preeclampsia-like features (hypertension, proteinuria, growth restriction, kidney injury): PE serum at gd10 in IL-10-/- mice, 2 g/kg i.p. at gd9, or gd11 and gd14, or gd9, gd11 and gd14, readout gd17
Protocol: (§1) FIGS. 16 and 17. Based on the results in the cellular model of PE, the effect of Trehalose treatment in an animal model of PE was evaluated next in an established mouse model of PE by a single administration of severe PE serum in pregnant IL10^−/− mice at gd10^22. Using this model, mice were injected intraperitoneally with vehicle, Trehalose (2 g/kg), maltose, or D-glucose (2 g/kg) at gestational day (gd) 9 (a single dose before serum injection), at gd11 and gd14 (two doses after serum injection), or at gd9, gd11 and gd14 (one dose before and two doses after serum injection) (FIG. 16). At gd17, urine was collected, blood pressure was measured, and fetal weight was recorded (FIG. 17A-D). Kidney was fixed and processed for H&E staining for glomerular endotheliosis (FIG. 17E). As reported previously, administration of severe PE sera, not normal pregnancy sera, at gd10 recapitulated a full spectrum of PE-like manifestations in IL-10^−/− mice, including hypertension, proteinuria, renal injury and fetal growth restriction (FIG. 17).

[3] = test system: cis-P-tau; assay: cis-P-tau immunostaining in hypoxia-exposed primary trophoblast cells; assay type: cell-based, human; details: trehalose 50 mM, 1% O2, 3 days
Protocol: (§2) Human primary trophoblast cells (ScienCell Research Laboratories) were plated on glass coverslips and cultured in trophoblast medium supplemented with 5% fetal bovine serum, 1% trophoblast growth supplement and 1% penicillin/streptomycin (ScienCell Research Laboratories) in a humidified atmosphere with 5% CO2 at 37° C. Cells were washed three times with Dulbecco's phosphate-buffered saline and cultured in serum-free trophoblast medium prior to exposure to low oxygen tension (1% O2) or normoxia (20% O2) for 3 days. Cells were fixed with 4% formaldehyde in PBS for 15 min, permeabilized and then stained with ProteoStat® dye.
Primary trophoblast cells were treated with vehicle or trehalose (50 mM), exposed to low oxygen tension (1% O2) or normoxia, and fixed at 3 days. After permeabilized and blocked in PBS solution containing 1% Triton-X, 3% BSA and normal donkey serum for 30 min, cells were immunostained for cis-P-tau and mounted in anti-quench mounting medium with DAPI.

[4] = test system: Pin1; assay: Pin1 immunostaining in nuclei of hypoxia-exposed primary trophoblast cells; assay type: cell-based, human; details: trehalose 50 mM, 1% O2, 3 days
Protocol: as §2
(§3) Primary trophoblast cells were treated with vehicle or trehalose (50 mM), exposed to low oxygen tension (1% O2) or normoxia, and fixed at 3 days. After permeabilized and blocked in PBS solution containing 1% Triton-X, 3% BSA and normal donkey serum for 30 min, cells were immunostained for cis-P-tau with mouse anti-Pin1 antibody and then with Alexa Fluor 488 donkey anti-mouse secondary antibody. Cells were then mounted in anti-quench mounting medium with DAPI.

[5] = test system: pS71-Pin1; assay: pS71-Pin1 immunostaining in nuclei of hypoxia-exposed primary trophoblast cells; assay type: cell-based, human; details: trehalose 50 mM, 1% O2, 3 days
Protocol: as §2
as §3, with “pS71-Pin1” for “cis-P-tau”, “rabbit anti-pS71-Pin1” for “mouse anti-Pin1”, “anti-rabbit” for “anti-mouse”

[6] = test system: components of autophagy-lysosomal machinery; assay: Western blot of autophagy markers in hypoxia-exposed primary trophoblast cells; assay type: cell-based, human; details: trehalose 50 mM, 1% O2, 3 days
Protocol: Primary trophoblast cells were treated with vehicle or trehalose (50 mM), exposed to low oxygen tension (1% O2) or normoxia, and fixed at 3 days. Cells were harvested and lysed in RIPA lysis buffer containing protease inhibitors cocktail (Sigma). Proteins were separated by 4-12% SDS-PAGE and transferred into PVDF membrane. After blocking with 5% nonfat milk in PBS-tween (PBS-T) buffer for 30 min, the transferred membrane was incubated overnight in indicated primary antibodies, diluted in 3% or 5% BSA in PBS-T buffer, at 4° C. The membrane was washed three times, incubated for 1 h at room temperature with HRP-conjugated goat anti-rabbit/mouse IgG (Cell signaling), and then treated with enhanced chemiluminescent substrate (Thermofisher) and exposed on film.

[7] = test system: protein aggregates in primary trophoblast cells; assay: ProteoStat staining of protein aggregates in hypoxia-exposed primary trophoblast cells; assay type: cell-based, human; details: 1% O2, 3 days
Protocol: Human primary trophoblast cells (ScienCell Research Laboratories) were plated on glass coverslips and cultured in trophoblast medium supplemented with 5% fetal bovine serum, 1% trophoblast growth supplement and 1% penicillin/streptomycin (ScienCell Research Laboratories) in a humidified atmosphere with 5% CO2 at 37° C. Cells were washed three times with Dulbecco's phosphate-buffered saline and cultured in serum-free trophoblast medium prior to exposure to low oxygen tension (1% O2) or normoxia (20% O2) for 3 days. Cells were fixed with 4% formaldehyde in PBS for 15 min, permeabilized and then stained with ProteoStat® dye. […] FIG. 14. The effect of Trehalose on protein aggregation was examined in primary trophoblast cells in response to hypoxia, a useful cellular model of PE. Primary trophoblast cells were cultured under normoxic and hypoxic (1% O2) culture conditions for 3 days, treated with vehicle, Trehalose, maltose, sucrose or D-glucose and then fixed for staining or lysed for Western blotting. ProteoStat, a dye with high affinity to aggregated proteins, was used to detect protein aggregates in treated and untreated cells.

[8] = test system: TCL-1 cells; assay: Autophagy-lysosomal machinery and protein aggregates in trophoblast cell line TCL-1 under hypoxia; assay type: cell-based, human
[9] = test system: placenta of pre-eclamptic mice; assay: Placentas of pre-eclamptic mice: ProteoStat signal and cathepsin D expression; assay type: in vivo, mouse; details: all dose regimens
Protocol: as §1
FIG. 18. Furthermore, the molecular events that underlie effects of Trehalose in pre-eclamptic mice were interrogated. The placentas from Trehalose-treated mice and controls were assessed for the abundance of aggregated proteins and expression of molecules in autophagy-lysosomal pathway.

[10] = FDA; safety studies in mice, rats, and rabbits including in pregnancy; cited from earlier work

Structure (SMILES) | hypoxia-induced downregulation of LAMP1/2, TFEB and cathepsin D [1] | preeclampsia-like features (hypertension, proteinuria, growth restriction, kidney injury) [2] | hypoxia-induced upregulation of cis-P-tau [3] | hypoxia-induced downregulation of nuclear Pin1 expression [4] | hypoxia-induced upregulation of nuclear pS71-Pin1 expression [5] | hypoxia-induced downregulation of components of autophagy-lysosomal machinery (Western blot) [6] | hypoxia-induced accumulation of protein aggregates (ProteoStat signal) [7] | hypoxia-induced accumulation of protein aggregates (ProteoStat signal) ([7]; listed as trehalose) | autophagy-lysosomal machinery and aggregate clearance under hypoxia [8] | effect in mice administered normal pregnancy sera ([2]; normal pregnancy serum, IL-10-/- mice, 2 g/kg i.p.) | expression of cathepsin D in placenta [9] | protein aggregates in placenta (ProteoStat signal) ([9]; labyrinth, junctional zone and decidua) | safety status [10]
OC[C@H]1O[C@H](O[C@H]2[C@H](O)[C@@H](O)C(O)O[C@@H]2CO)[C@H](O)[C@@H](O)[C@@H]1O (mixture of isomers) [maltose, reference compound] | not easily observed | failed to rescue PE-like features |  |  |  |  |  |  |  |  |  |  | 
O=C[C@H](O)[C@@H](O)[C@H](O)[C@H](O)CO [D-glucose, reference compound] | not easily observed | failed to rescue PE-like features |  |  |  |  |  |  |  |  |  |  | 
OC[C@H]1O[C@H](O[C@H]2O[C@H](CO)[C@@H](O)[C@H](O)[C@H]2O)[C@H](O)[C@@H](O)[C@@H]1O [Trehalose] | significantly rescued hypoxia-induced downregulation of these molecules | significantly reversed preeclampsia-like features | blocked hypoxia-induced upregulation of cis-P-tau | blocked hypoxia-induced downregulation of nuclear Pin expression | inhibited hypoxia-induced upregulation of nuclear pS71-Pin1 expression | blocked hypoxia-induced downregulation of these proteins | significantly rescued hypoxia-induced accumulation of protein aggregates | inhibits protein aggregation | restores autophagy machinery | did not have obvious effect | rescued the expression of cathepsin D | significantly decreased protein aggregates | generally regarded as safe

Reference: US11844808B2, “Methods and compositions for treating pre-eclampsia” (Women & Infants Hospital of Rhode Island, priority 2018, dated 2023)
